What was measured:
[1] = tested on: Echinochloa crus-galli; assay: Pre-emergence herbicidal activity against Echinochloa crus-galli (barnyard grass) assessed as growth inhibition at 1.5 ai kg/ha under green house conditions; assay type: functional
[2] = tested on: Brassica napus; assay: Pre-emergence herbicidal activity against Brassica napus (oilseed rape) assessed as growth inhibition at 1.5 ai kg/ha under green house conditions; assay type: functional
[3] = tested on: Echinochloa crus-galli; assay: Post-emergence herbicidal activity against Echinochloa crus-galli (barnyard grass) assessed as growth inhibition at 1.5 ai kg/ha under green house conditions; assay type: functional
[4] = tested on: Cucumis sativus; assay: Pre-emergence growth inhibition of Cucumis sativus (cucumber) under green house conditions; assay type: functional, organism-based
[5] = tested on: Amaranthus retroflexus; assay: Pre-emergence herbicidal activity against Amaranthus retroflexus assessed as growth inhibition at 1.5 ai kg/ha under green house conditions; assay type: functional
[6] = tested on: Amaranthus retroflexus; assay: Post-emergence herbicidal activity against Amaranthus retroflexus assessed as growth inhibition at 1.5 ai kg/ha under green house conditions; assay type: functional
[7] = tested on: Digitaria sanguinalis; assay: Post-emergence herbicidal activity against Digitaria sanguinalis (hairy crabgrass) assessed as growth inhibition at 1.5 ai kg/ha under green house conditions; assay type: functional
[8] = tested on: Brassica napus; assay: Post-emergence herbicidal activity against Brassica napus (oilseed rape) assessed as growth inhibition at 1.5 ai kg/ha under green house conditions; assay type: functional
[9] = tested on: Digitaria sanguinalis; assay: Pre-emergence herbicidal activity against Digitaria sanguinalis (hairy crabgrass) assessed as growth inhibition at 1.5 ai kg/ha under green house conditions; assay type: functional
[10] = tested on: Medicago sativa; assay: Pre-emergence herbicidal activity against Medicago sativa (alfalfa) assessed as growth inhibition at 1.5 ai kg/ha under green house conditions; assay type: functional
[11] = tested on: Medicago sativa; assay: Post-emergence herbicidal activity against Medicago sativa (alfalfa) assessed as growth inhibition at 1.5 ai kg/ha under green house conditions; assay type: functional

COP(=O)(OC)C(OC(=O)COc1ccc(Cl)cc1Cl)c1ccccc1Cl (stereo unspecified)
growth inhibition (GI) [1]: 70%
growth inhibition (GI) [2]: 100%
growth inhibition (GI) [3]: 50%
IC50 [4]: 0.048 µg/g
growth inhibition (GI) [5]: 100%
growth inhibition (GI) [6]: 100%
growth inhibition (GI) [7]: 68.75%
growth inhibition (GI) [8]: 100%
growth inhibition (GI) [9]: 50%

COP(=O)(OC)C(C)OC(=O)COc1cccc(F)c1 (stereo unspecified)
growth inhibition (GI) [1]: 4.4%
growth inhibition (GI) [2]: 0%
growth inhibition (GI) [3]: 17.8%
IC50 [4]: 111.13 µg/g
growth inhibition (GI) [10]: 0%
growth inhibition (GI) [5]: 0%
growth inhibition (GI) [11]: 0%
growth inhibition (GI) [6]: 0%
growth inhibition (GI) [7]: 22.7%
growth inhibition (GI) [8]: 0%
growth inhibition (GI) [9]: 0%

COP(=O)(OC)C(OC(=O)COc1cccc(C(F)(F)F)c1)c1ccc(C)cc1 (stereo unspecified)
growth inhibition (GI) [1]: 80.4%
growth inhibition (GI) [2]: 50.4%
growth inhibition (GI) [3]: 23.6%
IC50 [4]: 4.04 µg/g
growth inhibition (GI) [10]: 100%
growth inhibition (GI) [5]: 100%
growth inhibition (GI) [11]: 91.2%
growth inhibition (GI) [6]: 96.2%
growth inhibition (GI) [7]: 0%
growth inhibition (GI) [8]: 14.2%
growth inhibition (GI) [9]: 95.7%

COP(=O)(OC)C(OC(=O)COc1cccc(C(F)(F)F)c1)c1ccc(Cl)cc1 (stereo unspecified)
growth inhibition (GI) [1]: 84.2%
growth inhibition (GI) [2]: 38.6%
growth inhibition (GI) [3]: 0%
IC50 [4]: 3.16 µg/g
growth inhibition (GI) [10]: 89.8%
growth inhibition (GI) [5]: 100%
growth inhibition (GI) [11]: 100%
growth inhibition (GI) [6]: 88.5%
growth inhibition (GI) [7]: 12%
growth inhibition (GI) [8]: 57.4%
growth inhibition (GI) [9]: 91.5%

COP(=O)(OC)C(C)OC(=O)COc1ccc(Cl)cc1Cl (stereo unspecified) [CLACYFOS]
growth inhibition (GI) [1]: 70%
growth inhibition (GI) [2]: 99.5%
growth inhibition (GI) [3]: 50%
growth inhibition (GI) [10]: 98%
growth inhibition (GI) [5]: 100%
growth inhibition (GI) [11]: 100%
growth inhibition (GI) [6]: 100%
growth inhibition (GI) [7]: 55%
growth inhibition (GI) [8]: 100%
growth inhibition (GI) [9]: 70%

COP(=O)(OC)C(C)OC(=O)COc1ccc(F)cc1F (stereo unspecified)
growth inhibition (GI) [1]: 36%
growth inhibition (GI) [2]: 39.3%
growth inhibition (GI) [3]: 20.2%
IC50 [4]: 0.59 µg/g
growth inhibition (GI) [10]: 52.1%
growth inhibition (GI) [5]: 38.9%
growth inhibition (GI) [11]: 49.4%
growth inhibition (GI) [6]: 77.5%
growth inhibition (GI) [7]: 48.5%
growth inhibition (GI) [8]: 61%
growth inhibition (GI) [9]: 73.6%

COP(=O)(OC)C(OC(=O)COc1cccc(C(F)(F)F)c1)c1ccc2c(c1)OCO2 (stereo unspecified)
growth inhibition (GI) [1]: 70.6%
growth inhibition (GI) [2]: 64.6%
growth inhibition (GI) [3]: 15.3%
IC50 [4]: 4.87 µg/g
growth inhibition (GI) [10]: 100%
growth inhibition (GI) [5]: 100%
growth inhibition (GI) [11]: 100%
growth inhibition (GI) [6]: 88.5%
growth inhibition (GI) [7]: 12%
growth inhibition (GI) [8]: 43.3%
growth inhibition (GI) [9]: 93.2%

COP(=O)(OC)C(OC(=O)COc1cccc(C(F)(F)F)c1)c1ccccc1Cl (stereo unspecified)
growth inhibition (GI) [1]: 54%
growth inhibition (GI) [2]: 61%
growth inhibition (GI) [3]: 23.5%
IC50 [4]: 3.57 µg/g
growth inhibition (GI) [10]: 100%
growth inhibition (GI) [5]: 100%
growth inhibition (GI) [11]: 100%
growth inhibition (GI) [6]: 100%
growth inhibition (GI) [7]: 36%
growth inhibition (GI) [8]: 54.6%
growth inhibition (GI) [9]: 97.9%

COP(=O)(OC)C(C)OC(=O)COc1ccccc1 (stereo unspecified)
growth inhibition (GI) [1]: 0%
growth inhibition (GI) [2]: 7.1%
growth inhibition (GI) [3]: 12%
IC50 [4]: 89.1 µg/g
growth inhibition (GI) [10]: 27.2%
growth inhibition (GI) [5]: 0%
growth inhibition (GI) [11]: 9.4%
growth inhibition (GI) [6]: 5%
growth inhibition (GI) [7]: 0%
growth inhibition (GI) [8]: 21%
growth inhibition (GI) [9]: 0%

CCOP(=O)(OCC)C(OC(=O)COc1cccc(C(F)(F)F)c1)c1ccc(Cl)cc1 (stereo unspecified)
growth inhibition (GI) [1]: 76.5%
growth inhibition (GI) [2]: 13.8%
growth inhibition (GI) [3]: 5.6%
IC50 [4]: 4.32 µg/g
growth inhibition (GI) [10]: 100%
growth inhibition (GI) [5]: 86.4%
growth inhibition (GI) [11]: 100%
growth inhibition (GI) [6]: 86.3%
growth inhibition (GI) [7]: 16%
growth inhibition (GI) [8]: 45.4%
growth inhibition (GI) [9]: 95.7%

COP(=O)(OC)C(C)OC(=O)COc1cccc(Cl)c1Cl (stereo unspecified)
growth inhibition (GI) [1]: 19.1%
growth inhibition (GI) [2]: 0%
growth inhibition (GI) [3]: 13.6%
IC50 [4]: 74.11 µg/g
growth inhibition (GI) [10]: 8.3%
growth inhibition (GI) [5]: 16.7%
growth inhibition (GI) [11]: 0%
growth inhibition (GI) [6]: 43.8%
growth inhibition (GI) [7]: 35.5%
growth inhibition (GI) [8]: 23.3%
growth inhibition (GI) [9]: 0%

CCOP(=O)(OCC)C(C)OC(=O)COc1ccc(C)cc1 (stereo unspecified)
growth inhibition (GI) [2]: 62.17%
growth inhibition (GI) [3]: 47.4%
growth inhibition (GI) [6]: 0%
growth inhibition (GI) [7]: 0%
growth inhibition (GI) [8]: 30.9%
growth inhibition (GI) [9]: 0%

CCOP(=O)(OCC)C(OC(=O)COc1cccc(C(F)(F)F)c1)c1ccc2c(c1)OCO2 (stereo unspecified)
growth inhibition (GI) [1]: 80.4%
growth inhibition (GI) [2]: 12.6%
growth inhibition (GI) [3]: 0%
IC50 [4]: 5.91 µg/g
growth inhibition (GI) [10]: 93.2%
growth inhibition (GI) [5]: 95.5%
growth inhibition (GI) [11]: 100%
growth inhibition (GI) [6]: 88.5%
growth inhibition (GI) [7]: 24%
growth inhibition (GI) [8]: 61.7%
growth inhibition (GI) [9]: 100%

COP(=O)(OC)C(C)OC(=O)COc1cc(F)cc(F)c1 (stereo unspecified)
growth inhibition (GI) [1]: 0%
growth inhibition (GI) [2]: 0%
growth inhibition (GI) [3]: 3.8%
IC50 [4]: 93.5 µg/g
growth inhibition (GI) [10]: 10.4%
growth inhibition (GI) [5]: 0%
growth inhibition (GI) [11]: 0%
growth inhibition (GI) [6]: 14.9%
growth inhibition (GI) [7]: 27.2%
growth inhibition (GI) [8]: 0%
growth inhibition (GI) [9]: 0%

COP(=O)(OC)C(C)OC(=O)COc1cccc(C(F)(F)F)c1 (stereo unspecified)
growth inhibition (GI) [1]: 57.3%
growth inhibition (GI) [2]: 56.1%
growth inhibition (GI) [3]: 12.3%
growth inhibition (GI) [10]: 63.8%
growth inhibition (GI) [5]: 43.4%
growth inhibition (GI) [11]: 100%
growth inhibition (GI) [6]: 27.3%
growth inhibition (GI) [7]: 39.1%
growth inhibition (GI) [8]: 92.6%
growth inhibition (GI) [9]: 73.1%

COP(=O)(OC)C(OC(=O)COc1ccc([N+](=O)[O-])cc1)c1ccccc1 (stereo unspecified)
growth inhibition (GI) [1]: 0.8%
growth inhibition (GI) [2]: -2.78%
growth inhibition (GI) [3]: 0%
IC50 [4]: 223 µg/g
growth inhibition (GI) [7]: -5.2%
growth inhibition (GI) [8]: 5.49%
growth inhibition (GI) [9]: 0%

O=C(COc1ccc(Cl)cc1Cl)OC(c1ccccc1Cl)P(=O)(O)O (stereo unspecified)
growth inhibition (GI) [1]: 10%
growth inhibition (GI) [2]: 67%
growth inhibition (GI) [3]: 20.5%
growth inhibition (GI) [5]: 23%
growth inhibition (GI) [6]: 23%
growth inhibition (GI) [7]: 13%
growth inhibition (GI) [8]: 49%
growth inhibition (GI) [9]: 23%

Reference: ChEMBL document CHEMBL3044810, “Synthesis and herbicidal activity of alkyl 1-(3-trifluoromethylphenoxyacetoxy)-1-substituted methylphosphonates” (J Pestic Sci, 2007)
